From patent publication US20040082503A1, “Methods for treatment of diabetes using peptide analogues of insulin” (Neurocrine Biosciences, Inc., priority 1998, published 2004)
“And” between values parts separate entries of the source, which are not always exact repeats. Equal entries are not always repeated.

How the values were obtained:
[1] = test system: Insulin B chain (9-23) specific murine T cell clone PD12-4.1; experiment: Proliferation of insulin B chain (9-23) specific murine T cell clone PD12-4.1; format: cell-based, mouse (NOD); conditions: clone PD12-4.1, 50 μM peptide, Exp. 1; for S.I. (Stimulation Index): cpm with peptide/cpm in medium alone
Description: (§1) Insulin specific NOD T cell lines were established by culturing lymphocytes isolated from islet-infiltrating populations by in vitro stimulation with either porcine insulin at 25 μg/ml and irradiated NOD islet cell in the presence of irradiated NOD spleen cells as antigen presenting cells and cytokines. To obtain the infiltrating lymphocytes the following procedures were performed (see Wegmann et al., Eur. J. Immunol. 24:1853, 1994): the pancreas from the NOD mouse was digested with collagenase and individual islets were isolated manually. The infiltrating lymphocytes were then obtained by mild trypsin digestion of the islets. The insulin specific T cell lines or clones were propagated by serial stimulation in the presence of NOD spleen cells, porcine insulin and lymphokines. Clones were obtained by limiting dilution of the B chain (9-23) specific T cell lines in the presence of the antigen presenting cells and porcine insulin at 25 μg/ml. Wells with a growing population of cells following limiting dilution were expanded in appropriate medium, and after one cycle of growth were tested for reactivity to the B chain (9-23) peptide of insulin by evaluating the proliferative response.
(§2) Insulin B chain (9-23) (SEQ ID NO:2) specific mouse (NOD) T cell clones were isolated from infiltrated islets as described in Example 2. Peptide analogues with single alanine substitutions were prepared as described in Example 1. The effect of each analogue on T cell proliferation was then evaluated using an assay performed in 96-well flat bottom microtiter plates (see Daniel et al., Eur. J. Immunol. 25:1056, 1995). Briefly 25,000 T cell clones along with 1 million irradiated NOD spleen cells were cultured in the presence of 50 μg/ml of insulin B chain 9-23 peptide or any of the alanine substituted peptides listed below in triplicate sets. The plates were incubated for a total of 72 hours in 7% carbon dioxide atmosphere with a pulse of 1 μCi/well of tritiated thymidine for the last 6-8 hours of culture. Cells were harvested on a glass fiber filter and the associated radioactivity was counted in a liquid scintillation counter. Results are expressed as mean counts per minute of triplicate wells.
(§3) NOD T cell clones were incubated in the presence of 50 μM of either the native B chain (9-23) peptide or NBI-6024. The data in Table 3 represent the mean of triplicate sample±standard error of the mean. Within Table 3, S.I. (Stimulation Index)=proliferation (cpm) in the presence of the peptide/proliferation (cpm) in medium alone.

[2] = test system: Insulin B chain (9-23) specific murine T cell clone PD12-4.9; experiment: Proliferation of insulin B chain (9-23) specific murine T cell clone PD12-4.9; format: cell-based, mouse (NOD); conditions: clone PD12-4.9, 50 μM peptide, Exp. 1 and 2; for S.I. (Stimulation Index): cpm with peptide/cpm in medium alone
Description: as §1, §2, §3

[3] = test system: insulin B chain (9-23) responsive T cell lines from diabetic patients; experiment: Proliferation of T cell lines from diabetic patients; format: cell-based, human; conditions: for Stimulation Index: 50 μM peptide
Description: FIGS. 4-6 are histograms illustrating the proliferative response (measured in cpm) of T cell lines from different diabetic patients to the native B chain (9-23) peptide or to representative peptide analogues. Peripheral blood mononuclear cells were isolated from diabetic patients and cultured in the presence of insulin B chain (9-23) peptide. After three rounds of restimulation with insulin B chain (9-23), 1×10^5 T-cells and 7×10^4 irradiated autologous PBMCs were added to each well in a round bottom 96-well plate in complete medium. Cells were cultured for 5 days with NBI-6024 (insulin B chain 9-23 with alanine substitutions at positions 16 and 19), insulin B chain (9-23) or medium only. On day 4, the cells were pulsed with ^3H-thymidine and re-cultured for an additional 18 hours. The cultures were then harvested, counted using liquid scintillation, and the data was expressed as the mean counts per minute (cpm) of replicate samples±standard error of the mean (sem).
FIG. 7 is a histogram illustrating the proliferative response (measured in cpm) of a T cell line from a diabetic patient to the native B chain (9-23) peptide or to representative peptide analogues containing alanine substitutions as indicated. Peripheral blood mononuclear cells were isolated from diabetic patients and cultured in the presence of insulin B chain (9-23) peptide. After three rounds of restimulation with insulin B chain (9-23), 1×10^5 T-cells and 7×10^4 irradiated autologous PBMCs were added to each well in a round bottom 96-well plate in complete medium. Cells were cultured for 5 days with analogue, insulin B chain (9-23) or medium only (BKG), as indicated. On day 4, the cells were pulsed with ^3H-thymidine and re-cultured for an additional 18 hours. The cultures were then harvested, counted using liquid scintillation, and the data was expressed as the mean counts per minute (cpm) of replicate samples±standard error of the mean (sem).
Peptide analogues of B chain (9-23) containing alanine substitutions at residues 13, 15, 16 or 17 or the doubly substituted alanine analog A^16, 19 (NBI-6024) were prepared as described in Example 1. T cell lines from diabetic patients were prepared by isolating lymphocytes from the blood of the patient by subjecting the blood to a density gradient separation. Isolated lymphocytes were then cultured in the presence of the insulin B chain (9-23) peptide (10 μM) and recombinant human IL-2 in the presence of 5-10% of autologous serum and irradiated autologous peripheral blood lymphocytes in culture medium. Four to five days later cells were harvested and the cycle repeated for 2 or 3 times.
Proliferation of the T cell line, in response to the native B chain (9-23) peptide (SEQ ID NO:2) or to the peptide analogs, was measured by culturing 25,000 to 100,000 T cells in the presence of 50,000-200,000 irradiated autologous PBLs and different concentrations of the insulin B chain (9-23) peptide or a peptide analogue in triplicate cultures. Following 4-5 days of culture, including the last 18 hours with radioactive thymidine, cells were harvested and the associated radioactivity was counted in a liquid scintillation counter. Results are expressed as mean counts per minute for each of the peptide analogues tested.

[4] = patient number 1 (ID 100) PBLs, CPM with antigen/CPM with medium alone
[5] = patient number 8 (ID 1100) PBLs
[6] = listed as Insulin B Chain (9-23)

Row | Substance | Proliferative response, Mean cpm ± sem [1] | S.I. (Stimulation Index) [1] | Proliferative response, Mean cpm ± sem [2] | S.I. (Stimulation Index) [2] | Stimulation of diabetic patients' T cell lines and clones responsive to native insulin B chain (9-23) ([3]; FIGS. 4-7, Table 5) | Stimulation Index [3, 4] | Stimulation Index ([3]; patient number 2 (ID 200) PBLs) | Stimulation Index ([3]; patient number 3 (ID 400) PBLs) | Stimulation Index ([3]; patient number 4 (ID 500) PBLs) | Stimulation Index ([3]; patient number 5 (ID 600) PBLs) | Stimulation Index ([3]; patient number 6 (ID 700) PBLs) | Stimulation Index ([3]; patient number 7 (ID 900) PBLs) | Stimulation Index [3, 5] | Proliferative response, Mean cpm ± sem [2, 6] | S.I. (Stimulation Index) [2, 6]
1 | NBI-6024: insulin B chain 9-23 with alanine substitutions at positions 16 and 19 (SHLVEALALVAGERG) | 566 ± 30 cpm | 2.63 | 12,313 ± 1,372 cpm and 6,171 ± 725 cpm | 1.35 and 0.85 | do not respond | 0.9 | 1.2 | 1.0 | 0.9 | 1.6 | 1.5 | 0.9 | 0.8 | – | –
2 | Native 9-23: native peptide, residues 9-23 of human insulin B chain (SEQ ID NO:2) (SHLVEALYLVCGERG; Residues 9-23 of human insulin B chain; listed as Homo sapiens) [reference compound] | 28,593 ± 4664 cpm | 132.99 | – | – | – | 9.9 | 5.3 | 7.8 | 2.1 | 5.8 | 3.2 | 2.6 | 3.7 | 45,541 ± 5,222 cpm and 65,624 ± 4,979 cpm | 4.99 and 9.1
